System: 276233-004-R-J1-PDC complex spheroid viability
Experiment: Anticancer human tumor 276233-004-R-J1-PDC patient-derived colon adenocarcinoma cell line growth inhibition [GQUAD]
Conditions: for IC50: curve of first compound; for viability, T/C: stronger effect = lower value
In short: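 Multi-cell-type spheroids of tumor cells with HUVEC and mesenchymal stem cells, treated with drug combinations. Concentrations descend in half-log steps from near clinical Cmax, or from 10 microM where Cmax is unknown; viability read-out.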

[1] = second compound 0.0316 µM, first compound 0.0316 µM
[2] = second compound 0.0316 µM, first compound 0.1 µM
[3] = second compound 0.0316 µM, first compound 0.316 µM
[4] = second compound 0.0316 µM, first compound 1 µM
[5] = second compound 0.0316 µM, first compound 3.16 µM
[6] = second compound 0.0316 µM, first compound 10 µM
[7] = second compound 0.1 µM, first compound 0.0316 µM
[8] = second compound 0.1 µM, first compound 0.1 µM
[9] = second compound 0.1 µM, first compound 0.316 µM
[10] = second compound 0.1 µM, first compound 1 µM
[11] = second compound 0.1 µM, first compound 3.16 µM
[12] = second compound 0.1 µM, first compound 10 µM
[13] = second compound 0.316 µM, first compound 0.0316 µM
[14] = second compound 0.316 µM, first compound 0.1 µM
[15] = second compound 0.316 µM, first compound 0.316 µM
[16] = second compound 0.316 µM, first compound 1 µM
[17] = second compound 0.316 µM, first compound 3.16 µM
[18] = second compound 0.316 µM, first compound 10 µM
[19] = second compound 1 µM, first compound 0.0316 µM
[20] = second compound 1 µM, first compound 0.1 µM
[21] = second compound 1 µM, first compound 0.316 µM
[22] = second compound 1 µM, first compound 1 µM
[23] = second compound 1 µM, first compound 3.16 µM
[24] = second compound 1 µM, first compound 10 µM
[25] = second compound 3.16 µM, first compound 0.0316 µM
[26] = second compound 3.16 µM, first compound 0.1 µM
[27] = second compound 3.16 µM, first compound 0.316 µM
[28] = second compound 3.16 µM, first compound 1 µM
[29] = second compound 3.16 µM, first compound 3.16 µM
[30] = second compound 3.16 µM, first compound 10 µM
[31] = second compound 10 µM, first compound 0.0316 µM
[32] = second compound 10 µM, first compound 0.1 µM
[33] = second compound 10 µM, first compound 0.316 µM
[34] = second compound 10 µM, first compound 1 µM
[35] = second compound 10 µM, first compound 3.16 µM
[36] = second compound 10 µM, first compound 10 µM
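Also: spheroids exposed to drugs for seven days.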
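For viability, T/C in this document: 100% = DMSO vehicle control viability.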

CC(=O)O[C@H]1C(=O)[C@@]2(C)[C@H]([C@H](OC(=O)c3ccccc3)[C@]3(O)C[C@H](OC(=O)[C@H](O)[C@@H](NC(=O)c4ccccc4)c4ccccc4)C(C)=C1C3(C)C)[C@]1(OC(C)=O)CO[C@@H]1C[C@@H]2O + Cc1cnc(CNC(=O)c2c(=O)c3ccc(N4CCCN(C)CC4)nc3n3c2sc2ccccc23)cn1
IC50 (second compound 0.0316 µM): > 10 µM | IC50 (second compound 0.1 µM): > 10 µM | IC50 (second compound 0.316 µM): > 10 µM | IC50 (second compound 1 µM): > 10 µM | IC50 (second compound 3.16 µM): > 10 µM | IC50 (second compound 10 µM): > 10 µM | viability, T/C [1]: 72.5% | viability, T/C [2]: 80.5% | viability, T/C [3]: 90.3% | viability, T/C [4]: 81.1% | viability, T/C [5]: 84.1% | viability, T/C [6]: 95.8% | viability, T/C [7]: 80.1% | viability, T/C [8]: 93.4% | viability, T/C [9]: 80.8% | viability, T/C [10]: 93.6% | viability, T/C [11]: 86.6% | viability, T/C [12]: 84.5% | viability, T/C [13]: 97.5% | viability, T/C [14]: 94% | viability, T/C [15]: 89.9% | viability, T/C [16]: 91% | viability, T/C [17]: 87.7% | viability, T/C [18]: 95.6% | viability, T/C [19]: 76% | viability, T/C [20]: 84.8% | viability, T/C [21]: 88.6% | viability, T/C [22]: 89.5% | viability, T/C [23]: 87% | viability, T/C [24]: 75.8% | viability, T/C [25]: 91.5% | viability, T/C [26]: 72.9% | viability, T/C [27]: 80.8% | viability, T/C [28]: 71.1% | viability, T/C [29]: 80.3% | viability, T/C [30]: 83.8% | viability, T/C [31]: 59.9% | viability, T/C [32]: 62.5% | viability, T/C [33]: 64.9% | viability, T/C [34]: 53.8% | viability, T/C [35]: 51.4% | viability, T/C [36]: 61.4%

C=CC(=O)N1CCN(c2nc(=O)n(-c3c(C)ccnc3C(C)C)c3nc(-c4c(O)cccc4F)c(F)cc23)C(C)C1 (centres undefined) + CN(C)c1ccc(Nc2c3ccc(NC(=O)CCN4CCCC4)cc3nc3cc(NC(=O)CCN4CCCC4)ccc23)cc1
IC50 (second compound 0.0316 µM): > 10 µM | IC50 (second compound 0.1 µM): > 10 µM | IC50 (second compound 0.316 µM): > 10 µM | IC50 (second compound 1 µM): > 10 µM | IC50 (second compound 3.16 µM): < 0.0316 µM | IC50 (second compound 10 µM): > 10 µM | viability, T/C [1]: 93.1% | viability, T/C [2]: 90.4% | viability, T/C [3]: 106% | viability, T/C [4]: 97.6% | viability, T/C [5]: 102% | viability, T/C [6]: 87.6% | viability, T/C [7]: 90% | viability, T/C [8]: 75.8% | viability, T/C [9]: 80.6% | viability, T/C [10]: 73.9% | viability, T/C [11]: 77% | viability, T/C [12]: 75.2% | viability, T/C [13]: 67.9% | viability, T/C [14]: 82.1% | viability, T/C [15]: 68.6% | viability, T/C [16]: 58.5% | viability, T/C [17]: 71% | viability, T/C [18]: 68.9% | viability, T/C [19]: 55.4% | viability, T/C [20]: 47.8% | viability, T/C [21]: 62.2% | viability, T/C [22]: 56.6% | viability, T/C [23]: 59.1% | viability, T/C [24]: 63.6% | viability, T/C [25]: 48.2% | viability, T/C [26]: 52.1% | viability, T/C [27]: 42.3% | viability, T/C [28]: 44.6% | viability, T/C [29]: 55.8% | viability, T/C [30]: 45.3% | viability, T/C [31]: 50.6% | viability, T/C [32]: 55.1% | viability, T/C [33]: 43.5% | viability, T/C [34]: 53.5% | viability, T/C [35]: 62.6% | viability, T/C [36]: 47.8%

— PubChem BioAssay AID2060496 (Molecular Pharmacology Branch, DTP, NCI, 2025)
